Experimental data from patent US8952162B2, “Triazolopyridines as phosphodiesterase inhibitors for treatment of dermal diseases” (Leo Pharma A/S, priority 2008, dated 2015).

These compounds were tested against Human recombinant PDE4 (Genbank accession no NM—006203) (Homo sapiens, UniProt Q08499) (assay: PDE4 assay (SPA, cAMP cleavage)). Settings: Example 52; human recombinant PDE4, 1 hour incubation, cAMP 1×10^-5M, test compound up to 10 μM; read-out: PDE4 IC50 range.
Assay type: biochemical
Method: At the end of the incubation, the cleavage of the substrate was evaluated by the binding of the AMP product to SPA beads, which generate chemoluminescence when bound to the radioactive tracer. The AMP product inhibited the binding of the radioactive tracer to the beads, and the luminescent signal was competed.

Human recombinant PDE4 (Genbank accession no NM—006203), sequence (Q08499 1-673 isoform Q08499-2): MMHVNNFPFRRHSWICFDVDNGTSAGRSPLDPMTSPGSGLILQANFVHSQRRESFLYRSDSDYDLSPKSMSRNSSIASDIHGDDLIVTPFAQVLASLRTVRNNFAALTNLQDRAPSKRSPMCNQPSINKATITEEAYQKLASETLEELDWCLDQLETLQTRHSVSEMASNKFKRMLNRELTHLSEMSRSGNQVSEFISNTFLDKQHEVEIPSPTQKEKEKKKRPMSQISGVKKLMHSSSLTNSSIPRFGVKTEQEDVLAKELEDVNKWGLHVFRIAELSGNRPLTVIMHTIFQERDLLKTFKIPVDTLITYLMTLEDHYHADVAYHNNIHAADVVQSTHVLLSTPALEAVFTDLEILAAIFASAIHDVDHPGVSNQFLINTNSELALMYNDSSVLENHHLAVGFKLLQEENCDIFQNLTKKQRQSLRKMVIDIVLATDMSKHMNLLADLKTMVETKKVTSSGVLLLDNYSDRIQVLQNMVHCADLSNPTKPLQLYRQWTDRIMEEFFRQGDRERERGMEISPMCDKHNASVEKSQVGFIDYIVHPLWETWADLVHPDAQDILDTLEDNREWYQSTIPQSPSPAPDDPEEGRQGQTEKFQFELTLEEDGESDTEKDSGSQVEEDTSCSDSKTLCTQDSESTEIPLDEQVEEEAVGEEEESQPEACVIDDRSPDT

IC50 [µM]	SMILES
0.5 to 1	COc1ccc(-c2cncnc2)n2nc(C3CC3)nc12 [Compound 111, 2-Cyclopropyl-8-methoxy-5-pyrimidin-5-yl-[1,2,4]triazolo[1,5-a]pyridine]
< 0.5	COc1ccc(-c2cccnc2)n2nc(C3CC3)nc12 [Compound 118, 2-Cyclopropyl-8-methoxy-5-pyridin-3-yl-[1,2,4]triazolo[1,5-a]pyridine]
< 0.5	COc1ccc(-c2ccc(C#N)cc2)n2nc(C3CC3)nc12 [Compound 132, 4-(2-Cyclopropyl-8-methoxy-[1,2,4]triazolo[1,5-a]pyridin-5-yl)-benzonitrile]
< 0.5	COc1ccc(-c2ccc(C(C)=O)s2)n2nc(C3CC3)nc12 [Compound 110, 1-[5-(2-Cyclopropyl-8-methoxy-[1,2,4]triazolo[1,5-a]pyridin-5-yl)-thiophen-2-yl]-ethanone]
< 0.5	COc1ccc(N2CCCCC2)n2nc(C3CC3)nc12 [Compound 143, 2-Cyclopropyl-8-methoxy-5-piperidin-1-yl-[1,2,4]triazolo[1,5-a]pyridine]
< 0.5	COc1ccc(-c2ccc(OC)c3nc(C4CC4)nn23)cc1OC [Compound 105, 2-Cyclopropyl-5-(3,4-dimethoxy-phenyl)-8-methoxy-[1,2,4]triazolo[1,5-a]pyridine]
< 0.5	COc1cccc(-c2ccc(OC)c3nc(C4CC4)nn23)c1 [Compound 109, 2-Cyclopropyl-8-methoxy-5-(3-methoxy-phenyl)-[1,2,4]triazolo[1,5-a]pyridine]
< 0.5	COc1ccc(-c2cccs2)n2nc(C3CC3)nc12 [Compound 106, 2-Cyclopropyl-8-methoxy-5-thiophen-2-yl-[1,2,4]triazolo[1,5-a]pyridine]
0.5 to 1	COc1ccc(-c2ccccc2F)n2nc(C3CC3)nc12 [Compound 121, 2-Cyclopropyl-5-(2-fluoro-phenyl)-8-methoxy-[1,2,4]triazolo[1,5-a]pyridine]
< 0.5	COc1ccc(-c2cccc(F)c2)n2nc(C3CC3)nc12 [Compound 125, 2-Cyclopropyl-5-(3-fluoro-phenyl)-8-methoxy-[1,2,4]triazolo[1,5-a]pyridine]
0.5 to 1	COc1ccc(-c2cccc(S(C)(=O)=O)c2)n2nc(C3CC3)nc12 [Compound 112, 2-Cyclopropyl-5-(3-methanesulfonyl-phenyl)-8-methoxy-[1,2,4]triazolo[1,5-a]pyridine]

Same assay, conditions: Example 53; PDE4 assay as in example 52; read-out: PDE4 IC50 range

IC50 [µM]	SMILES
< 0.5	COc1ccc(-c2cccc(C#N)c2)n2nc(C3(CNC(=O)N4CCCC4)CC3)nc12 [Compound 156, Pyrrolidine-1-carboxylic acid {1-[5-(3-cyano-phenyl)-8-methoxy-[1,2,4]triazolo[1,5-a]pyridin-2-yl]-cyclopropylmethyl}-amide]
< 0.5	CCCNC(=O)C1(c2nc3c(OC)ccc(-c4ccc(C#N)cc4)n3n2)CC1 [Compound 212, 1-[5-(4-Cyano-phenyl)-8-methoxy-[1,2,4]triazolo[1,5-a]pyridin-2-yl]-cyclopropanecarboxylic acid propylamide]
> 1	COc1ccc(-c2cccc(C(C)=O)c2)n2nc(C3(C(=O)O)CC3)nc12 [Compound 193, 1-[5-(3-Acetyl-phenyl)-8-methoxyl-[1,2,4]triazolo[1,5-a]pyridin-2-yl]-cyclopropanecarboxylic acid]
< 0.5	CCCNC(=O)OCC1(c2nc3c(OC)ccc(-c4ccc(C#N)c(OC)c4)n3n2)CC1 [Compound 237, Propyl-carbamic acid 1-[5-(4-cyano-3-methoxy-phenyl)-8-methoxy-[1,2,4]triazolo[1,5-a]pyridin-2-yl]-cyclopropylmethyl ester]
< 0.5	COc1ccc(-c2cccc(C#N)c2)n2nc(C3(C(=O)NCCS(C)(=O)=O)CC3)nc12 [Compound 199, 1-[5-(3-Cyano-phenyl)-8-methoxy-[1,2,4]triazolo[1,5-a]pyridin-2-yl]-cyclopropanecarboxylic acid (2-methanesulfonyl-ethyl)-amide]
< 0.5	CCOC(=O)C1(c2nc3c(OC)ccc(-c4cccc(C#N)c4)n3n2)CC1 [Compound 188, 1-[5-(3-Cyano-phenyl)-8-methoxy-[1,2,4]triazolo[1,5-a]pyridin-2-yl]-cyclopropanecarboxylic acid ethyl ester]
< 0.5	COc1ccc(-c2cc(C#N)cc(CO)c2)n2nc(C3CC3)nc12 [Compound 168, 3-(2-Cyclopropyl-8-methoxy-[1,2,4]triazolo[1,5-a]pyridin-5-yl)-5-hydroxymethyl-benzonitrile]
< 0.5	COc1ccc(-c2cccc(C#N)c2)n2nc(C3(COC(=O)N4CCCC4)CC3)nc12 [Compound 151, Pyrrolidine-1-carboxylic acid 1-[5-(3-cyano-phenyl)-8-methoxy-[1,2,4]triazolo[1,5-a]pyridin-2-yl]-cyclopropylmethyl ester]
< 0.5	COc1ccc(-c2cccc3c2CCC3=O)n2nc(C3(COC(=O)NC4CCCCC4)CC3)nc12 [Compound 240, Cyclohexyl-carbamic acid 1-[8-methoxy-5-(1-oxo-indan-4-yl)-[1,2,4]triazolo[1,5-a]pyridin-2-yl]-cyclopropylmethyl ester]
< 0.5	COc1ccc(-c2cncc(C#N)c2)n2nc(C3(C(=O)NCCS(C)(=O)=O)CC3)nc12 [Compound 186, 1-[5-(5-Cyano-pyridin-3-yl)-8-methoxy-[1,2,4]triazolo[1,5-a]pyridin-2-yl]-cyclopropanecarboxylic acid (2-methanesulfonyl-ethyl)-amide]
< 0.5	COc1cc(-c2ccc(OC)c3nc(C4(C(=O)NCCS(C)(=O)=O)CC4)nn23)ccc1C#N [Compound 177, 1-[5-(4-Cyano-3-methoxy-phenyl)-8-methoxy-[1,2,4]triazolo[1,5-a]pyridin-2-yl]-cyclopropanecarboxylic acid (2-methanesulfonyl-ethyl)-amide]
< 0.5	COc1cc(-c2ccc(OC)c3nc(C4(COC(=O)NC5CCCCC5)CC4)nn23)ccc1C#N [Compound 241, Cyclohexyl-carbamic acid 1-[5-(4-cyano-3-methoxy-phenyl)-8-methoxy-[1,2,4]triazolo[1,5-a]pyridin-2-yl]-cyclopropylmethyl ester]
< 0.5	CC(=O)c1cccc(-c2ccc(O)c3nc(C4CC4)nn23)c1 [Compound 144, 1-[3-(2-Cyclopropyl-8-hydroxy-[1,2,4]triazolo[1,5-a]pyridin-5-yl)-phenyl]-ethanone]
< 0.5	CCOC(=O)C1(c2nc3c(OC)ccc(-c4cccc(C(C)=O)c4)n3n2)CC1 [Compound 190, 1-[5-(3-Acetyl-phenyl)-8-methoxy-[1,2,4]triazolo[1,5-a]pyridin-2-yl]-cyclopropanecarboxylic acid ethyl ester]
< 0.5	COc1ccc(-c2ccc(C#N)cc2)n2nc(C3(C(=O)NCC(C)C)CC3)nc12 [Compound 214, 1-[5-(4-Cyano-phenyl)-8-methoxy-[1,2,4]triazolo[1,5-a]pyridin-2-yl]-cyclopropanecarboxylic acid isobutyl-amide]
< 0.5	COc1ccc(-c2cccc(C(C)=O)c2)n2nc(C3(C(=O)NCCS(C)(=O)=O)CC3)nc12 [Compound 226, 1-[5-(3-Acetyl-phenyl)-8-methoxy-[1,2,4]triazolo[1,5-a]pyridin-2-yl]-cyclopropanecarboxylic acid (2-methanesulfonyl-ethyl)-amide]
< 0.5	COc1ccc(-c2ccc3c(c2)CCC3=O)n2nc(C3(C(=O)NCc4ccccc4)CC3)nc12 [Compound 182, 1-[8-Methoxy-5-(1-oxo-indan-5-yl)-[1,2,4]triazolo[1,5-a]pyridin-2-yl]-cyclopropanecarboxylic acid benzylamide]
< 0.5	COc1ccc(-c2ccc3c(c2)CCC3=O)n2nc(C3(COC(=O)NC(C)C)CC3)nc12 [Compound 239, Isopropyl-carbamic acid 1-[8-methoxy-5-(1-oxo-indan-5-yl)-[1,2,4]triazolo[1,5-a]pyridin-2-yl]-cyclopropylmethyl ester]
< 0.5	COc1cc(-c2ccc(OC)c3nc(C4(COC(=O)N(C)C)CC4)nn23)ccc1C#N [Compound 231, Dimethyl-carbamic acid 1-[5-(4-cyano-3-methoxy-phenyl)-8-methoxy-[1,2,4]triazolo[1,5-a]pyridin-2-yl]-cyclopropylmethyl ester]
< 0.5	COc1ccc(-c2ccc(C#N)cc2)n2nc(C3(C(=O)NCCNC(C)=O)CC3)nc12 [Compound 216, 1-[5-(4-Cyano-phenyl)-8-methoxy-[1,2,4]triazolo[1,5-a]pyridin-2-yl]-cyclopropanecarboxylic acid (2-acetylamino-ethyl)-amide]
< 0.5	COc1ccc(-c2cncc(C#N)c2)n2nc(C3(C(=O)NCc4ccccc4)CC3)nc12 [Compound 173, 1-[5-(5-Cyano-pyridin-3-yl)-8-methoxy-[1,2,4]triazolo[1,5-a]pyridin-2-yl]-cyclopropanecarboxylic acid benzylamide]
< 0.5	COc1ccc(-c2cccc3c2CCC3=O)n2nc(C3(C(=O)NCC4CCCCC4)CC3)nc12 [Compound 176, 1-[8-Methoxy-5-(1-oxo-indan-4-yl)-[1,2,4]triazolo[1,5-a]pyridin-2-yl]-cyclopropanecarboxylic acid cyclohexylmethyl-amide]
< 0.5	COc1cc(-c2ccc(OC)c3nc(C4(C(=O)NCC5CCCCC5)CC4)nn23)ccc1C#N [Compound 174, 1-[5-(4-Cyano-3-methoxy-phenyl)-8-methoxy-[1,2,4]triazolo[1,5-a]pyridin-2-yl]-cyclopropanecarboxylic acid cyclohexylmethyl-amide]
< 0.5	COc1ccc(-c2cncc(C#N)c2)n2nc(C3(C(=O)NCC4CCCCC4)CC3)nc12 [Compound 185, 1-[5-(5-Cyano-pyridin-3-yl)-8-methoxy-[1,2,4]triazolo[1,5-a]pyridin-2-yl]-cyclopropanecarboxylic acid cyclohexylmethyl-amide]
